Test results published in ChEMBL document CHEMBL1201862, “PubChem BioAssay data set” (2004).
Calls of active or inactive are those of the source.

Legend:
[1] = molecular target: T1, Nuclear receptor subfamily 0 group B member 1 (Homo sapiens, UniProt P51843); assay type: functional, cell-based;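 further: HEK293T cells transfected with SF-1 and DAX-1 plus StAR promoter luciferase reporter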
T1 sequence (P51843 whole entry): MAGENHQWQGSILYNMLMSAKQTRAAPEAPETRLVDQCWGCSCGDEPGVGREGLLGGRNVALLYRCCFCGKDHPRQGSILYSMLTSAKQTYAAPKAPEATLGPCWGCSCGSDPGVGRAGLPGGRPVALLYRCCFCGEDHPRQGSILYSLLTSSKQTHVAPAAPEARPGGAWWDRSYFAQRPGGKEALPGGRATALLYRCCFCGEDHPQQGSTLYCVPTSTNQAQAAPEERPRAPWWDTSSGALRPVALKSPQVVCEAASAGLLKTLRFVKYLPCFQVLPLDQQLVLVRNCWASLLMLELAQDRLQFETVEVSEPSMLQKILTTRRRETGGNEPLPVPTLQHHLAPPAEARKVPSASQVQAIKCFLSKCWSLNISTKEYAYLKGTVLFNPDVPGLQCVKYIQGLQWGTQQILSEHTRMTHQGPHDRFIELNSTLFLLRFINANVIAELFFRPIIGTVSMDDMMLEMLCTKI

[2] = molecular target: Paired box protein Pax-8 (Homo sapiens, UniProt Q06710); experiment: inhibitors of PAX8-driven TPO luciferase reporter, dose response, RMG-I cells, cherry-pick (AID 687027); assay type: functional, cell-based;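 further: luciferase reporter driven by Pax8 target thyroperoxidase promoter measured by SteadyGlo luminescence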
Chain of Paired box protein Pax-8 (Q06710 whole entry): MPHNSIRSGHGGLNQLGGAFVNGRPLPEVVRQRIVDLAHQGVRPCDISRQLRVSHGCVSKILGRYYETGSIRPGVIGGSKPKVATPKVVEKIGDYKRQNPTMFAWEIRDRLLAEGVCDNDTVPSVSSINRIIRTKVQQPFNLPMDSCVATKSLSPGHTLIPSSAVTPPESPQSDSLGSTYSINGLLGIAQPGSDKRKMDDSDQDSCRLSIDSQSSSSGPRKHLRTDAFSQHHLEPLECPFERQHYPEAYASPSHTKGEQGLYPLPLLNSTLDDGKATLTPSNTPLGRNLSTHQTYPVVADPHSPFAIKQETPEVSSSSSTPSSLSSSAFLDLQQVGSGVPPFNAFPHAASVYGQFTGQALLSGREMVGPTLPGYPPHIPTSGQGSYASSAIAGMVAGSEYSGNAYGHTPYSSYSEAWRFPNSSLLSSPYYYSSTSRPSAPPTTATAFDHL

[3] = cells; assay type: functional, cell-based
[4] = intracellular Trypanosoma cruzi inhibitors in host cells – cell-based, plate reader, cherry-pick samples, set 3, dose response (AID 651818); assay type: functional;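 further: compounds incubated with infected cells for about four days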
[5] = miR-122 activators in hepatoma reporter cells, dose response, cell-based, Huh7 psiCHECK-miR122, Renilla luciferase, cherry-picked (AID 651956); assay type: functional;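 further: huh7 hepatoma cells stably carrying a psiCHECK-2 miR-122 sensor plasmid; renilla luciferase signal reporting endogenous miR-122 activity after 48 h compound exposure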
[6] = inhibitors of HIV Env-driven cell fusion, dose response, cherry-pick (AID 652057); assay type: functional, cell-based
[7] = off-target signal loss in HeLa-CEM21 co-culture – HeLa F-luc CTL cells, cherry-picked, counter-screen for HIV-1 Env fusion inhibitor project, dose response (AID 652040); assay type: functional, cell-based;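 further: potency for signal decrease marking cytotoxic or nonspecific inhibition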
[8] = CEM21 lymphoblast cell cytotoxicity, dose response, cytotoxicity control for viral fusion inhibitor project, CellTiter-Glo luminescence, cherry-picked (AID 652042); assay type: functional, cell-based;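 further: potency for signal decrease meaning cytotoxicity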
[9] = ZM109 Env clade C HIV-1 fusion inhibitors, dose response, HeLa effector, CEM target cells, luciferase, cherry-pick (AID 652058); assay type: functional, cell-based
[10] = inhibitors of clade B AD8 Env fusion, dose response, cell-based, cherry-pick (AID 652062); assay type: functional;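 further: luciferase signal from cell-cell fusion driven by HIV-1 clade B AD8 Env; potency is for inhibitors of fusion seen as a drop in luminescence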
[11] = molecular target: T2, Adenosylmethionine-8-amino-7-oxononanoate aminotransferase (Mycobacterium tuberculosis, UniProt P9WQ81); experiment: Mycobacterium tuberculosis BioA enzyme inhibitor Measured in Biochemical System Using Plate Reader - 2163-02_Inhibitor_Dose_CherryPick_Activity.; assay type: functional, Mycobacterium tuberculosis UT205
T2 sequence (P9WQ81 whole entry): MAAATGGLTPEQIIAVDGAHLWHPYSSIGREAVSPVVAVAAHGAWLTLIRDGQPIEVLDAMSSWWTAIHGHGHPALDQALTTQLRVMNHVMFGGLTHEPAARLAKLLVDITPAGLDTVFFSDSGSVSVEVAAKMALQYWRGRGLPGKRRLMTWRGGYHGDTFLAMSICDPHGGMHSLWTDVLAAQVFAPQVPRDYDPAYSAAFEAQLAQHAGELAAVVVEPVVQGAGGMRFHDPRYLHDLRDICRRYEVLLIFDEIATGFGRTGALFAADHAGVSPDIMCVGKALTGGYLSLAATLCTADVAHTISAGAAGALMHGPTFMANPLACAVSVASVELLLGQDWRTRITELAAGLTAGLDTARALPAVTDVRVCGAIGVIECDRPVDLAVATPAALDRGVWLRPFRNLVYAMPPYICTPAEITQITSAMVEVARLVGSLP

[12] = test system: Streptococcus; experiment: Group A Streptococcus viability loss, dose response, counter-screen for streptokinase expression inhibitor project, luminescence, BacTiterGlo (AID 1915); assay type: functional, organism-based;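 further: potency for reduction of bacterial viability or growth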
[13] = molecular target: T3, Probable nicotinate-nucleotide adenylyltransferase (Staphylococcus aureus (strain N315), UniProt P65502); assay type: functional, Staphylococcus aureus subsp. aureus N315;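 on IC50 Mean: confirmatory dose-response retesting of NadD inhibitor hits first found in an ultra-high-throughput screen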
T3 sequence (P65502 whole entry): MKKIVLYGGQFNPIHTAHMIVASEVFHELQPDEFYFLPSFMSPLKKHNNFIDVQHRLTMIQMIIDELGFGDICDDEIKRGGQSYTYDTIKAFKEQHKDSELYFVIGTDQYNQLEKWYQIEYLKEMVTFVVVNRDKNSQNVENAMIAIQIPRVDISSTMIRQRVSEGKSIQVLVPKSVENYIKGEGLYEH

[14] = molecular target: T4, Streptokinase A (Streptococcus pyogenes serotype M1, UniProt P10520); experiment: S. pyogenes streptokinase expression inhibitors, potency, dose response, plasminogen activation absorbance, OD405 (AID 1914); assay type: functional, Streptococcus pyogenes M1 GAS;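 further: secreted streptokinase activity via plasminogen activation per viability signal from cell pellet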
T4 sequence (P10520 whole entry): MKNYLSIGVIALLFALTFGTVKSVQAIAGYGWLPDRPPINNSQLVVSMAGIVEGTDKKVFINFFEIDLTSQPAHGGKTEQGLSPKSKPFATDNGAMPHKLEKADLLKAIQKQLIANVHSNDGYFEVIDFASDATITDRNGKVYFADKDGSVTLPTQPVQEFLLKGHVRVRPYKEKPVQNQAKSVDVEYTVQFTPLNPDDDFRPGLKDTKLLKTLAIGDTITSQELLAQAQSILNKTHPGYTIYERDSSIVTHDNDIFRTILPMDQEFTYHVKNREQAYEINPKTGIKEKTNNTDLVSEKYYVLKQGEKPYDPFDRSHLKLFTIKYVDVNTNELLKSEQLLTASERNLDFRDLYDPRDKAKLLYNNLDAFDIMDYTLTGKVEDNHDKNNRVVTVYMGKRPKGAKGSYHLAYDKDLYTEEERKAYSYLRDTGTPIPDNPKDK

[15] = test system: Streptococcus sp. 'group A'; experiment: growth inhibition of control SK(-) GAS strain, dose response, counter-screen for streptokinase expression inhibitor project, luminescence, kanamycin, BacTiterGlo, confirmation (AID 1900); assay type: functional, organism-based
[16] = molecular target: T3, Probable nicotinate-nucleotide adenylyltransferase; assay type: functional, Staphylococcus aureus subsp. aureus N315; details: read-out: IC50_Mean

With `COc1ccc(-c2cnc3c(NC=O)cc(-c4ccccc4OC)cn23)cc1OC` the IC50 [1] was > 67.6 µM (inactive), the AC50 [2] was 1.55 µM (active) and the IC50 [3] was > 67.6 µM (inactive).

In the case of `C[C@@H]1CN([C@@H](C)CO)C(=O)c2cccc(NC(=O)CCCCCC(=O)Nc3ccccc3N)c2O[C@H]1CN(C)CC1CCCCC1`, the AC50 [4] is reported as 3.58 µM (active).

With `COc1ccccc1C#Cc1ccc([C@H]2[C@@H](CO)N3CCCCN(CCC(F)(F)F)C[C@H]23)cc1` the AC50 [5] was 17.6 µM (active).

With `C[C@@H]1CN([C@H](C)CO)C(=O)Cc2cc(NS(=O)(=O)c3ccc(Cl)cc3)ccc2O[C@@H]1CN(C)S(=O)(=O)c1ccc(F)cc1` the AC50 [4] was 7.57 µM (active).

For `CSc1ccc(CN2CCC2(C)C(=O)Nc2cccc(NS(C)(=O)=O)c2)cc1` (stereo not drawn), the AC50 [6] was 9.03 µM (active), the AC50 [7] was 11.4 µM (active) and the AC50 [8] was 58.6 µM (active). The AC50 [9] was 10.3 µM (active) and the AC50 [10] was 21.7 µM (active).

In the case of `O=C(NC1CCCc2c1cnn2-c1cc(F)cc(F)c1)c1ccc[n+]([O-])c1` (stereo not drawn), the AC50 [11] is reported as 4.29 µM (active).

For `C[C@H](CO)N1C[C@H](C)[C@H](CN(C)Cc2ccc(C(=O)Nc3ccccc3N)cc2)Oc2ccc(NS(=O)(=O)c3ccc(Cl)cc3)cc2CC1=O`, the AC50 [4] was 1.91 µM (active).

For `C[C@@H]1CN([C@H](C)CO)S(=O)(=O)c2ccc(C3=CCCC3)cc2O[C@@H]1CN(C)C(=O)Cc1ccncc1`, the AC50 [5] was 5.84 µM (active).

In the case of `C[C@H](O)[C@@H]1C(=O)N2CCc3c([nH]c4cccc(-c5ccccc5)c34)[C@@H]2C[C@@H]1N(C)C(=O)OCc1ccccc1`, the AC50 [6] is reported as 5.22 µM (active), the AC50 [7] is reported as 3.94 µM (active) and the AC50 [8] is reported as 32.5 µM (active). For the same compound, the AC50 [9] was 3.65 µM (active).

For `Cc1nn(-c2ccc(Cl)cc2)c(Cl)c1/C=N/NC(=O)c1ccc(NS(=O)(=O)c2cccs2)cc1`, the EC50 [12] was 5.2 µM (active), the IC50 [13] was 7.71 µM (active) and the EC50 [14] was > 150 µM (not active). The EC50 [15] was 1.53 µM (active) and the IC50 [16] was 27.4 µM (active).
